Values belong to the molecule of their own block, whether it stands above or below them. Active and inactive are the calls of the source. No cut-off for these calls is given here.
Assays:
[1] = (§1) Cellular uptake in human Jurkat T cells assessed as displacemnet of [O-(2-acetamido)-D-serine]8-cyclosporine N-{(5-aminopentyl)-[2,3,6,7-tetrahydro-11-oxo-1H,5H,11Hbenzopyrano(6,7,8-ij)quinolizine-10-carboxyl amide] from intracellular compartments after 90 mins by flow cytometric analysis; type: ADME, cell-based; details: 1.5 h
[2] = Inhibition of calcineurin phosphatase activity (unknown origin) assessed as R2 phosphopeptide dephosphorylation after 30 mins by malachite green staining assay in presence of calmodulin and CypA
[3] = target: T1, Peptidyl-prolyl cis-trans isomerase A (Homo sapiens, UniProt P62937); assay: Inhibition of CypA PPIase activity (unknown origin) using Glt-(Ala)n-Pro-Phe-4-nitroanilides as substrate
Target sequence in this assay (P62937 whole entry): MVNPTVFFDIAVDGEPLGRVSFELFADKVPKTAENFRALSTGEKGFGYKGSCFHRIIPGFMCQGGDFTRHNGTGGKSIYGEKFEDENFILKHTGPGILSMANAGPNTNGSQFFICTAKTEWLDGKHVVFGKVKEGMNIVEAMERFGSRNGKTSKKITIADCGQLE

Mus musculus [4] = assay: In vivo inhibition of extracellular cyclophilin-mediated monocytes recruitment in peritoneal fluid in thioglycollate challenged CD147-deficient C57BL6 mouse peritonitis model at 20 mg/kg, ip administered 3 hrs before thioglycollate challenge measured after 18 hrs; type: functional, organism-based; design: dose 20 mg/kg
[5] = as §1, with “compartments at 50 fold excess” for “compartments”; type: ADME, cell-based; details: 1.5 h
Mus musculus [6] = assay: In vivo inhibition of extracellular cyclophilin-mediated CD3+ T cells infiltration into TNCB challenged ear in CD147-deficient C57BL6 mouse allergic contact hypersensitivity model at 4 mg/kg, ip bid administered on day 4 to 6 prior to TNCB challenge by immunohistochemical analysis; type: functional, organism-based; design: dose 4 mg/kg; details: T-cell
Mus musculus [7] = assay: In vivo inhibition of extracellular cyclophilin-mediated CD11b+ myeloid cells infiltration into TNCB challenged ear in CD147-deficient C57BL6 mouse allergic contact hypersensitivity model at 4 mg/kg, ip bid administered on day 4 to 6 prior to TNCB challenge by immunohistochemical analysis; type: functional, organism-based; design: dose 4 mg/kg
Mus musculus [8] = assay: In vivo inhibition of extracellular cyclophilin-mediated ear swelling in CD147-deficient TNCB challenged C57BL6 mouse at 4 mg/kg, ip bid administered on day 4 to 6; type: functional, organism-based; design: dose 4 mg/kg
Mus musculus [9] = assay: In vivo inhibition of extracellular cyclophilin-mediated neutrophil recruitment in peritoneal fluid in thioglycollate challenged CD147-deficient C57BL6 mouse peritonitis model at 20 mg/kg, ip administered 3 hrs before thioglycollate challenge measured after 18 hrs; type: functional, organism-based; design: dose 20 mg/kg
Leukocyte [10] = assay: Effect on fmlp-induced CD147-deficient mouse leukocytes migration from bone marrow; type: functional
Leukocyte [11] = assay: Effect on FCS-induced CD147-deficient mouse leukocytes migration from bone marrow; type: functional
Leukocyte [12] = assay: Effect on fmlp-induced wild type mouse leukocytes migration from bone marrow; type: functional
Leukocyte [13] = assay: Effect on FCS-induced wild type mouse leukocytes migration from bone marrow; type: functional
Mus musculus [14] = assay: In vivo inhibition of extracellular cyclophilin-mediated CD11b+ myeloid cells infiltration into TNCB challenged ear in C57BL6 mouse allergic contact hypersensitivity model at 4 mg/kg, ip bid administered on day 4 to 6 prior to TNCB challenge by immunohistochemical analysis; type: functional, organism-based; design: dose 4 mg/kg
Mus musculus [15] = assay: In vivo inhibition of extracellular cyclophilin-mediated ear swelling in TNCB challenged C57BL6 mouse allergic contact hypersensitivity model at 4 mg/kg, ip bid administered on day 4 to 6 measured after 24 hrs; type: functional, organism-based; design: dose 4 mg/kg
Mus musculus [16] = assay: In vivo inhibition of extracellular cyclophilin-mediated MMP-9 secretion in peritoneal fluid in thioglycollate challenged C57BL6 mouse peritonitis model at 20 mg/kg, ip administered for 3 hrs before thioglycollate challenge by gelatin zymographic analysis; type: functional, organism-based; design: dose 20 mg/kg
Mus musculus [17] = assay: In vivo inhibition of extracellular cyclophilin-mediated IL-6 secretion in peritoneal fluid in thioglycollate challenged C57BL6 mouse peritonitis model at 20 mg/kg, ip administered for 3 hrs before thioglycollate challenge by ELISA; type: functional, organism-based; design: dose 20 mg/kg
Mus musculus [18] = assay: In vivo inhibition of extracellular cyclophilin-mediated neutrophils recruitment in peritoneal fluid of thioglycollate challenged C57BL6 mouse peritonitis model at 20 mg/kg, ip administered 3 hrs before thioglycollate challenge measured after 18 hrs; type: functional, organism-based; design: dose 20 mg/kg
Mus musculus [19] = assay: In vivo inhibition of extracellular cyclophilin-mediated monocytes recruitment in peritoneal fluid of thioglycollate challenged C57BL6 mouse peritonitis model at 20 mg/kg, ip administered 3 hrs before thioglycollate challenge measured after 18 hrs; type: functional, organism-based; design: dose 20 mg/kg
Homo sapiens = species on record: Homo sapiens; assay: Inhibition of calcineurin phosphatase activity (unknown origin) assessed as R2 phosphopeptide dephosphorylation up to 10 uM after 30 mins by malachite green staining assay in presence of calmodulin and CypA
[20] = target: Peptidyl-prolyl cis-trans isomerase C (Homo sapiens, UniProt P45877); assay: Inhibition of CypC PPIase activity (unknown origin)
Sequence of Peptidyl-prolyl cis-trans isomerase C (P45877 whole entry): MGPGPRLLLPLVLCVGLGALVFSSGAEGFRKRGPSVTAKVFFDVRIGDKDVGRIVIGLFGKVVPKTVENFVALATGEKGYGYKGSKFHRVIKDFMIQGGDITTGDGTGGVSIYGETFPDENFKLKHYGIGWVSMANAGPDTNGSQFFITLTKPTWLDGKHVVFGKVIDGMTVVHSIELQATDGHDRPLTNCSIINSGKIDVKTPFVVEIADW

Mus musculus [21] = assay: In vivo inhibition of extracellular cyclophilin-mediated CD3+ T cells infiltration into TNCB challenged ear in C57BL6 mouse allergic contact hypersensitivity model at 4 mg/kg, ip bid administered on day 4 to 6 prior to TNCB challenge by immunohistochemical analysis; type: functional, organism-based; design: dose 4 mg/kg; details: T-cell
[22] = target: T1, Peptidyl-prolyl cis-trans isomerase A; details: 1 uM
Target sequence in this assay (P62937 whole entry, looked up): as the sequence (P62937 whole entry) above
Description: Inhibition of recombinant human CypA-mediated CD147-deficient leukocyte migration from mouse bone marrow at 1 uM after 2 hrs

[23] = target: T1, Peptidyl-prolyl cis-trans isomerase A; details: Spleen, T-cell, 1 uM
Target sequence in this assay (P62937 whole entry, looked up): as the sequence (P62937 whole entry) above
Description: Inhibition of recombinant human CypA-mediated PMA/ionomycin-induced CD3+ T cell migration from mouse spleen at 1 uM after 2 hrs

[24] = target: T1, Peptidyl-prolyl cis-trans isomerase A; details: myeloid, 1 uM
Target sequence in this assay (P62937 whole entry, looked up): as the sequence (P62937 whole entry) above
Description: Inhibition of recombinant human CypA-mediated CD11b+ myeloid cell migration from mouse bone marrow at 1 uM after 2 hrs

[25] = target: T1, Peptidyl-prolyl cis-trans isomerase A; details: 1 uM; remark: listed apart in the source
Target sequence in this assay (P62937 whole entry, looked up): as the sequence (P62937 whole entry) above
Description: Inhibition of recombinant human CypA-mediated leukocyte migration from mouse bone marrow at 1 uM after 2 hrs

[26] = target: T1, Peptidyl-prolyl cis-trans isomerase A; details: HeLa, 2 uM
Target sequence in this assay (P62937 whole entry, looked up): as the sequence (P62937 whole entry) above
Description: Inhibition of CypA-mediated ERK phosphorylation in serum-starved human HeLa cells at 2 uM after 5 mins by Western blotting analysis

SMILES: CC[C@@H]1NC(=O)[C@H]([C@H](O)[C@H](C)Cc2nc3ccc(C(=O)OC)cc3[nH]2)N(C)C(=O)[C@H](C(C)C)N(C)C(=O)[C@H](CC(C)C)N(C)C(=O)[C@H](CC(C)C)N(C)C(=O)[C@@H](C)NC(=O)[C@H](C)NC(=O)[C@H](CC(C)C)N(C)C(=O)[C@H](C(C)C)NC(=O)[C@H](CC(C)C)N(C)C(=O)CN(C)C1=O
Drug uptake [1]: Active | IC50 [2]: 6900 nM | Ki [3]: 11.8 nM

SMILES: CC[C@@H]1NC(=O)[C@H]([C@H](O)[C@H](C)Cc2nc3ccc(C(=O)O)cc3[nH]2)N(C)C(=O)[C@H](C(C)C)N(C)C(=O)[C@H](CC(C)C)N(C)C(=O)[C@H](CC(C)C)N(C)C(=O)[C@@H](C)NC(=O)[C@H](C)NC(=O)[C@H](CC(C)C)N(C)C(=O)[C@H](C(C)C)NC(=O)[C@H](CC(C)C)N(C)C(=O)CN(C)C1=O
inhibition (Mus musculus [4]): inactive | Drug uptake [5]: Not Active | inhibition (Mus musculus [6]): inactive | inhibition (Mus musculus [7]): inactive | inhibition (Mus musculus [8]): inactive | inhibition (Mus musculus [9]): inactive | Activity (Leukocyte [10]): inactive | Activity (Leukocyte [11]): inactive | Activity (Leukocyte [12]): inactive | Activity (Leukocyte [13]): inactive | inhibition (Mus musculus [14]): Active | inhibition (Mus musculus [15]): Active | inhibition (Mus musculus [16]): Active | inhibition (Mus musculus [17]): Active | inhibition (Mus musculus [18]): Active | inhibition (Mus musculus [19]): Active | inhibition (Homo sapiens): inactive | Ki [20]: 118 nM | Ki [3]: 10.7 nM | inhibition (Mus musculus [21]): Active | inhibition [22]: inactive | inhibition [23]: Active | inhibition [24]: Active | inhibition [25]: Active | inhibition [26]: Active

SMILES: CC[C@@H]1NC(=O)[C@H]([C@H](O)[C@H](C)Cc2nc3ccccc3[nH]2)N(C)C(=O)[C@H](C(C)C)N(C)C(=O)[C@H](CC(C)C)N(C)C(=O)[C@H](CC(C)C)N(C)C(=O)[C@@H](C)NC(=O)[C@H](C)NC(=O)[C@H](CC(C)C)N(C)C(=O)[C@H](C(C)C)NC(=O)[C@H](CC(C)C)N(C)C(=O)CN(C)C1=O
Drug uptake [1]: Active | IC50 [2]: 1200 nM

SMILES: CC[C@@H]1NC(=O)[C@H]([C@H](O)[C@H](C)CC2=Nc3ccccc3CN2)N(C)C(=O)[C@H](C(C)C)N(C)C(=O)[C@H](CC(C)C)N(C)C(=O)[C@H](CC(C)C)N(C)C(=O)[C@@H](C)NC(=O)[C@H](C)NC(=O)[C@H](CC(C)C)N(C)C(=O)[C@H](C(C)C)NC(=O)[C@H](CC(C)C)N(C)C(=O)CN(C)C1=O
Drug uptake [1]: Active | inhibition (Homo sapiens): inactive

Next, values leading:

Drug uptake [1]: Active | IC50 [2]: > 10000 nM | Ki [3]: 43.9 nM
SMILES: CC[C@@H]1NC(=O)[C@H]([C@H](O)[C@H](C)Cc2nc3ccc(C(C)C)cc3[nH]2)N(C)C(=O)[C@H](C(C)C)N(C)C(=O)[C@H](CC(C)C)N(C)C(=O)[C@H](CC(C)C)N(C)C(=O)[C@@H](C)NC(=O)[C@H](C)NC(=O)[C@H](CC(C)C)N(C)C(=O)[C@H](C(C)C)NC(=O)[C@H](CC(C)C)N(C)C(=O)CN(C)C1=O

Drug uptake [1]: Active | IC50 [2]: 3400 nM | Ki [3]: 12.4 nM
SMILES: CC[C@@H]1NC(=O)[C@H]([C@H](O)[C@H](C)Cc2nc3ccc(C)cc3[nH]2)N(C)C(=O)[C@H](C(C)C)N(C)C(=O)[C@H](CC(C)C)N(C)C(=O)[C@H](CC(C)C)N(C)C(=O)[C@@H](C)NC(=O)[C@H](C)NC(=O)[C@H](CC(C)C)N(C)C(=O)[C@H](C(C)C)NC(=O)[C@H](CC(C)C)N(C)C(=O)CN(C)C1=O

Drug uptake [1]: Active | IC50 [2]: 4500 nM | Ki [3]: 36.6 nM
SMILES: CC[C@@H]1NC(=O)[C@H]([C@H](O)[C@H](C)Cc2nc3ccccc3s2)N(C)C(=O)[C@H](C(C)C)N(C)C(=O)[C@H](CC(C)C)N(C)C(=O)[C@H](CC(C)C)N(C)C(=O)[C@@H](C)NC(=O)[C@H](C)NC(=O)[C@H](CC(C)C)N(C)C(=O)[C@H](C(C)C)NC(=O)[C@H](CC(C)C)N(C)C(=O)CN(C)C1=O

Drug uptake [1]: Active | IC50 [2]: 4600 nM
SMILES: CC[C@@H]1NC(=O)[C@H]([C@H](O)[C@H](C)Cc2nc3ccccc3c(=O)[nH]2)N(C)C(=O)[C@H](C(C)C)N(C)C(=O)[C@H](CC(C)C)N(C)C(=O)[C@H](CC(C)C)N(C)C(=O)[C@@H](C)NC(=O)[C@H](C)NC(=O)[C@H](CC(C)C)N(C)C(=O)[C@H](C(C)C)NC(=O)[C@H](CC(C)C)N(C)C(=O)CN(C)C1=O
